# Laboratory results from patent US20230346281A1, “Fully Printed Electrode Biological Interface” (Early Charm Ventures, priority 2022, published 2023).
# Test system: HepG2 hepatocytes tissue layers
# Assay: Live cell viability / CEIS recordings in the presence of a cytotoxic agent (EtOH)
# Type: cell-based, human
# Details: 12 hour exposure to EtOH (70% final); HEPG2 2 million cells/mL with PEG-PLL (1:10) hydrogel
# Procedure: A toxicological agent, Ethanol (EtOH) was used as a clinically relevant cytotoxic agent for the HepG2 hepatocytes tissue layers, HEPG2 (2 million cells/mL) with PEG-PLL (1:10) hydrogel. CEIS recordings were obtained at 1 hour and 24 hours post deposition with and without the cytoxic agent, Table 3. A final CEIS recording was obtained from these cells following a 12 hour exposure to EtOH (70% final). A marked increase in amplitude with additional recovery time post deposition (1 vs 24 hours).
smiles,measurement,value
"CCO [EtOH, Ethanol]",amplitude of CEIS recordings,increased the observed amplitude of CEIS recordings
